# Assay results from US10954246B2, “Compound of EOC315 Mod.I crystal form and preparation method thereof” (Taizhou EOC Pharma Co., Ltd., priority 2017, dated 2021).
# Where a name gives a salt, the structure may show the parent alone.
# Legend:
# [1] = Thermogravimetric analysis (TGA); assay type: physicochemical
# Method: The DTA curve of a test sample has an endothermic peak at 198.1° C., which is consistent with the DSC result.
# [2] = Stability evaluation under accelerated condition (40° C., RH 75%); assay type: physicochemical
# Method: Long-term stability over twelve months was evaluated at 25° C. and a relative humidity of 60%; or accelerated stability over six months was evaluated at 40° C. and a relative humidity of 75%.
# [3] = test system: Colo-205 human CRC xenograft; assay: Colo-205 human CRC xenograft model, tumor microvessel histomorphometry (CD31); assay type: in vivo; details: for decrease of MVA: 3 days after the administration
# Method: The EOC315 crystalline form Mod. […] Therefore, a study was conducted in a Colo-205 human CRC xenograft model to evaluate whether the anti-tumor activity observed in vivo is consistent with the hypothesis. The microvessel density of a tumor was determined by the quantitative histomorphometry after the endothelial cell marker CD31 was stained. Four hours after the first drug delivery, the declining level of the tumor MVA was further increased compared with each solvent control group (32%; P<0.05). Twenty-four hours after the administration, the declining level of the tumor MVA was further increased (53%; P<0.01).
# [4] = Month 0, limit 0.10%, listed as 151211
# [5] = Month 0, limit 0.10%, listed as 151212
# [6] = Month 0, limit 0.10%, listed as 151213
# [7] = Month 1, limit 0.10%, listed as 151211
# [8] = Month 1, limit 0.10%, listed as 151212
# [9] = Month 1, limit 0.10%, listed as 151213
# [10] = Month 1, limit 0.17%, listed as 151211
# [11] = Month 1, limit 0.17%, listed as 151212
# [12] = Month 1, limit 0.17%, listed as 151213
# [13] = Month 2, limit 0.10%, listed as 151211
# [14] = Month 2, limit 0.10%, listed as 151212
# [15] = Month 2, limit 0.10%, listed as 151213
# [16] = Month 2, limit 0.17%, listed as 151211
# [17] = Month 2, limit 0.17%, listed as 151212
# [18] = Month 2, limit 0.17%, listed as 151213
# [19] = Month 3, limit 0.10%, listed as 151211
# [20] = Month 3, limit 0.10%, listed as 151212
# [21] = Month 3, limit 0.10%, listed as 151213
# [22] = Month 6, limit 0.10%, listed as 151211
# [23] = Month 6, limit 0.10%, listed as 151212
# [24] = Month 6, limit 0.10%, listed as 151213
# [25] = Month 6, limit 0.17%, listed as 151211
# [26] = Month 6, limit 0.17%, listed as 151212
# [27] = Month 6, limit 0.17%, listed as 151213
compound,measurement,setting,value
"CNC(=O)c1cc(OCc2nnc(Nc3ccc(Cl)cc3)c3ccoc23)ccn1 [EOC315 crystalline form Mod. I, 4-(4-chloroanilino)-7-(2-methylaminocarbonyl-4-oxymethyl)pyridylfuro[2,3-d]pyridazine mesylate]",degradation temperature,[1],about 241.71 °C
same,Related substance Impurity 5,[2]; [4],0.02%
same,Related substance Impurity 6,[2]; [4],0.01%
same,Related substance Impurity 5,[2]; [5],0.01%
same,Related substance Impurity 6,[2]; [5],Undetected
same,Related substance Impurity 5,[2]; [6],Undetected
same,Related substance Impurity 6,[2]; [6],Undetected
same,Related substance Maximum single impurity,"[2]; Month 0, limit 0.15%, listed as 151211",0.0079%
same,Related substance Maximum single impurity,"[2]; Month 0, limit 0.15%, listed as 151212",0.012%
same,Related substance Maximum single impurity,"[2]; Month 0, limit 0.15%, listed as 151213",0.0085%
same,Related substance Impurity 1,"[2]; Month 0, limit 0.17%",Undetected
same,Related substance Impurity 2,"[2]; Month 0, limit 0.17%",Undetected
same,Related substance Impurity 3,"[2]; Month 0, limit 0.17%, listed as 151211",0.016%
same,Related substance Impurity 3,"[2]; Month 0, limit 0.17%, listed as 151212",0.011%
same,Related substance Impurity 3,"[2]; Month 0, limit 0.17%, listed as 151213",0.011%
same,Related substance Total impurity,"[2]; Month 0, limit 1.0%, listed as 151211",0.53%
same,Related substance Total impurity,"[2]; Month 0, limit 1.0%, listed as 151212",0.66%
same,Related substance Total impurity,"[2]; Month 0, limit 1.0%, listed as 151213",0.52%
same,Related substance Impurity 4,"[2]; Month 0, limit 3.0%, listed as 151211",0.36%
same,Related substance Impurity 4,"[2]; Month 0, limit 3.0%, listed as 151212",0.46%
same,Related substance Impurity 4,"[2]; Month 0, limit 3.0%, listed as 151213",0.35%
same,Crystalline form,"[2]; Month 0, limit ModI",ModI
same,Related substance Impurity 5,[2]; [7],Undetected
same,Related substance Impurity 6,[2]; [7],0.01%
same,Related substance Impurity 5,[2]; [8],0.01%
same,Related substance Impurity 6,[2]; [8],Undetected
same,Related substance Impurity 5,[2]; [9],0.01%
same,Related substance Impurity 6,[2]; [9],Undetected
same,Related substance Maximum single impurity,"[2]; Month 1, limit 0.15%, listed as 151211",0.011%
same,Related substance Maximum single impurity,"[2]; Month 1, limit 0.15%, listed as 151212",Undetected
same,Related substance Maximum single impurity,"[2]; Month 1, limit 0.15%, listed as 151213",0.0077%
same,Related substance Impurity 1,"[2]; Month 1, limit 0.17%",Undetected
same,Related substance Impurity 2,[2]; [10],0.0031%
same,Related substance Impurity 3,[2]; [10],0.0040%
same,Related substance Impurity 2,[2]; [11],0.0026%
same,Related substance Impurity 3,[2]; [11],0.0037%
same,Related substance Impurity 2,[2]; [12],Undetected
same,Related substance Impurity 3,[2]; [12],0.0035%
same,Related substance Total impurity,"[2]; Month 1, limit 1.0%, listed as 151211",0.5%
same,Related substance Total impurity,"[2]; Month 1, limit 1.0%, listed as 151212",0.6%
same,Related substance Total impurity,"[2]; Month 1, limit 1.0%, listed as 151213",0.5%
same,Related substance Impurity 4,"[2]; Month 1, limit 3.0%, listed as 151211",0.4%
same,Related substance Impurity 4,"[2]; Month 1, limit 3.0%, listed as 151212",0.5%
same,Related substance Impurity 4,"[2]; Month 1, limit 3.0%, listed as 151213",0.3%
same,Related substance Impurity 5,[2]; [13],Undetected
same,Related substance Impurity 6,[2]; [13],0.01%
same,Related substance Impurity 5,[2]; [14],0.02%
same,Related substance Impurity 6,[2]; [14],Undetected
same,Related substance Impurity 5,[2]; [15],Undetected
same,Related substance Impurity 6,[2]; [15],Undetected
same,Related substance Maximum single impurity,"[2]; Month 2, limit 0.15%, listed as 151211",0.0045%
same,Related substance Maximum single impurity,"[2]; Month 2, limit 0.15%, listed as 151212",0.0062%
same,Related substance Maximum single impurity,"[2]; Month 2, limit 0.15%, listed as 151213",0.0067%
same,Related substance Impurity 1,"[2]; Month 2, limit 0.17%",Undetected
same,Related substance Impurity 2,[2]; [16],Undetected
same,Related substance Impurity 3,[2]; [16],0.0013%
same,Related substance Impurity 2,[2]; [17],0.0036%
same,Related substance Impurity 3,[2]; [17],0.0070%
same,Related substance Impurity 2,[2]; [18],0.0035%
same,Related substance Impurity 3,[2]; [18],0.014%
same,Related substance Total impurity,"[2]; Month 2, limit 1.0%, listed as 151211",0.6%
same,Related substance Total impurity,"[2]; Month 2, limit 1.0%, listed as 151212",0.7%
same,Related substance Total impurity,"[2]; Month 2, limit 1.0%, listed as 151213",0.6%
same,Related substance Impurity 4,"[2]; Month 2, limit 3.0%, listed as 151211",0.4%
same,Related substance Impurity 4,"[2]; Month 2, limit 3.0%, listed as 151212",0.5%
same,Related substance Impurity 4,"[2]; Month 2, limit 3.0%, listed as 151213",0.4%
same,Related substance Impurity 5,[2]; [19],0.01%
same,Related substance Impurity 6,[2]; [19],0.02%
same,Related substance Impurity 5,[2]; [20],0.01%
same,Related substance Impurity 6,[2]; [20],Undetected
same,Related substance Impurity 5,[2]; [21],Undetected
same,Related substance Impurity 6,[2]; [21],0.01% d
same,Related substance Maximum single impurity,"[2]; Month 3, limit 0.15%",Undetected
same,Related substance Impurity 1,"[2]; Month 3, limit 0.17%",Undetected
same,Related substance Impurity 2,"[2]; Month 3, limit 0.17%",Undetected
same,Related substance Impurity 3,"[2]; Month 3, limit 0.17%",Undetected
same,Related substance Total impurity,"[2]; Month 3, limit 1.0%, listed as 151211",0.5%
same,Related substance Total impurity,"[2]; Month 3, limit 1.0%, listed as 151212",0.6%
same,Related substance Total impurity,"[2]; Month 3, limit 1.0%, listed as 151213",0.5%
same,Related substance Impurity 4,"[2]; Month 3, limit 3.0%, listed as 151211",0.4%
same,Related substance Impurity 4,"[2]; Month 3, limit 3.0%, listed as 151212",0.5%
same,Related substance Impurity 4,"[2]; Month 3, limit 3.0%, listed as 151213",0.37%
same,Related substance Impurity 5,[2]; [22],0.01%
same,Related substance Impurity 6,[2]; [22],0.01%
same,Related substance Impurity 5,[2]; [23],0.01%
same,Related substance Impurity 6,[2]; [23],Undetected
same,Related substance Impurity 5,[2]; [24],Undetected
same,Related substance Impurity 6,[2]; [24],Undetected
same,Related substance Maximum single impurity,"[2]; Month 6, limit 0.15%, listed as 151211",0.030%
same,Related substance Maximum single impurity,"[2]; Month 6, limit 0.15%, listed as 151212",0.032%
same,Related substance Maximum single impurity,"[2]; Month 6, limit 0.15%, listed as 151213",0.029%
same,Related substance Impurity 1,"[2]; Month 6, limit 0.17%",Undetected
same,Related substance Impurity 2,[2]; [25],0.0061%
same,Related substance Impurity 3,[2]; [25],0.045%
same,Related substance Impurity 2,[2]; [26],0.0043%
same,Related substance Impurity 3,[2]; [26],0.044%
same,Related substance Impurity 2,[2]; [27],0.045%
same,Related substance Impurity 3,[2]; [27],0.060%
same,Related substance Total impurity,"[2]; Month 6, limit 1.0%, listed as 151211",0.7%
same,Related substance Total impurity,"[2]; Month 6, limit 1.0%, listed as 151212",0.8%
same,Related substance Total impurity,"[2]; Month 6, limit 1.0%, listed as 151213",0.7%
same,Related substance Impurity 4,"[2]; Month 6, limit 3.0%, listed as 151211",0.4%
same,Related substance Impurity 4,"[2]; Month 6, limit 3.0%, listed as 151212",0.5%
same,Related substance Impurity 4,"[2]; Month 6, limit 3.0%, listed as 151213",0.4%
same,Crystalline form,"[2]; Month 6, limit ModI",ModI
same,decrease of MVA,[3]; at 4 hours,64%
same,decrease of MVA,[3]; at 6 hours,68%
same,growth of tumor cells,[3]; conclusion from the xenograft results,significantly suppressed
same,decline of tumor MVA vs solvent control,"[3]; four hours after the first drug delivery, P<0.05",32%
same,decline of tumor MVA vs solvent control,"[3]; twenty-four hours after the administration, P<0.01",53%
